Publication PMC12136037, “Type II kinase inhibitors that target Parkinson’s disease–associated LRRK2” (Science Advances, 2025)

Legend:
Assay type in all cases: binding
LRRK2^KW = target: T1, LRRK2^KW (Homo sapiens, UniProt Q5S007); experiment: DSF thermal stabilization of LRRK2^KW; conditions: for ∆Tm (K): DSF, LRRK2^KW, 10 μM inhibitor
T1 construct: LRRK2 R1847 to E2527; His6-Z-tag (TEV cleavable) (N, cleaved yes); host or cells: Sf9 insect cells (baculovirus)
T1 sequence (Q5S007 1847-2527): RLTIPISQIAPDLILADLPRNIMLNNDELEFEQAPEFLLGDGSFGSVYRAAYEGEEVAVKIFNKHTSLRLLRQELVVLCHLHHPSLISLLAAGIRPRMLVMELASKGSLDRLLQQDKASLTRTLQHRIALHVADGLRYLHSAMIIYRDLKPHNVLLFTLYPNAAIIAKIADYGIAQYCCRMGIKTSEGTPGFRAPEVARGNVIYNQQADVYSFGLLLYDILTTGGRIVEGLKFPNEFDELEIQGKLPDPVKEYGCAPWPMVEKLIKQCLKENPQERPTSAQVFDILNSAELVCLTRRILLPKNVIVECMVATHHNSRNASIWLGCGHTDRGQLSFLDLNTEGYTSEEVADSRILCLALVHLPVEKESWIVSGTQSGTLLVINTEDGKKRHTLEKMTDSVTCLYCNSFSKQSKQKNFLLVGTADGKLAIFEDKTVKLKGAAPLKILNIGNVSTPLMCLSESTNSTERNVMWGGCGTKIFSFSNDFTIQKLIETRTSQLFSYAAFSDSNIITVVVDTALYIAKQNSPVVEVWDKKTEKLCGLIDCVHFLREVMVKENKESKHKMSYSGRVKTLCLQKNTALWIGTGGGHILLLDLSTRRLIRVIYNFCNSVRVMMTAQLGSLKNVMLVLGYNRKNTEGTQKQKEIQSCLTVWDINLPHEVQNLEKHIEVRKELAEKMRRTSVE
In short: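 DSF on 4 μM LRRK2^KW in 20 mM Hepes pH 7.4, 150 mM NaCl, 0.5 mM TCEP, 0.5% glycerol, 20 μM GDP, 2.5 mM MgCl2 with SYPRO Orange; inhibitor at 10 μM. Tm was taken as the minimum of the first derivative of fluorescence versus temperature, relative to control.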

[1] = target: T2, ~100 representative kinases (Homo sapiens, UniProt O15075); experiment: DSF 100 kinase selectivity screen; conditions: Protein DCAMKL1; average of three replicates;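 note: compound tested at 20 µM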
T2 construct: Recombinant protein kinase domains with a concentration of 2 μM
T2 sequence (O15075 whole entry, the tested form may be a part): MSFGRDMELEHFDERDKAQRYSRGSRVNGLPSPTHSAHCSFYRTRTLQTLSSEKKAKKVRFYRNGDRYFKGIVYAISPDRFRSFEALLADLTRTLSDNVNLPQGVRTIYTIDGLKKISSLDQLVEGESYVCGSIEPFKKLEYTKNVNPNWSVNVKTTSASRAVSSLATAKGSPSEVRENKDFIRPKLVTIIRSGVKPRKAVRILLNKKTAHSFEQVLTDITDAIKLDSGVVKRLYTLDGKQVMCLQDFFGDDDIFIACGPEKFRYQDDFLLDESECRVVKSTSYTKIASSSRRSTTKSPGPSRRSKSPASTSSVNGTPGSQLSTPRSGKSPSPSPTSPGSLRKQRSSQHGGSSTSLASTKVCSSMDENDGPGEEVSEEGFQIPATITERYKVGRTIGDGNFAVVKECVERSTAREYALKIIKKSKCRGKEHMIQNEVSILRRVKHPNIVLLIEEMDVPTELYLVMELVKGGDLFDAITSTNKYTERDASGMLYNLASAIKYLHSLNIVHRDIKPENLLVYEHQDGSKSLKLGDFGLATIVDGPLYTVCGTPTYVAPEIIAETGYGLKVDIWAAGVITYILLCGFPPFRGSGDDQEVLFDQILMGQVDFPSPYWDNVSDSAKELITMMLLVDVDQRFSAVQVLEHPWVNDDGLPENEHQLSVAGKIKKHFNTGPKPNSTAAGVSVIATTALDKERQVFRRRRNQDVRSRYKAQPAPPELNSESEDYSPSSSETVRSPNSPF
Procedure: (§1) Recombinant protein kinase domains with a concentration of 2 μM were mixed with a 20 μM compound solution in dimethyl sulfoxide (DMSO), 20 mM Hepes (pH 7.5), and 500 mM NaCl. SYPRO Orange (5000×, Invitrogen) was added as a fluorescence probe (1μl/ml). Subsequently, temperature-dependent protein unfolding profiles were measured using the QuantStudio 5 realtime PCR machine (Thermo Fisher Scientific, Waltham, MA, USA). […] The temperature was raised with a step rate of 3°C/min. […] Differences in melting temperature are given as ΔTm values in degrees Celsius. […]

[2] = target: T3, ~100 representative kinases (Homo sapiens, UniProt P24941); experiment: DSF 100 kinase selectivity screen; conditions: Protein CDK2; average of three replicates;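 note: compound tested at 20 µM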
T3 construct: Recombinant protein kinase domains with a concentration of 2 μM
Procedure: as §1

[3] = target: T4, ~100 representative kinases (Homo sapiens, UniProt P49137); experiment: DSF 100 kinase selectivity screen; conditions: protein MAPKAPK2; average of three replicates;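 note: compound tested at 20 µM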
T4 construct: Recombinant protein kinase domains with a concentration of 2 μM
T4 sequence (P49137 whole entry, the tested form may be a part): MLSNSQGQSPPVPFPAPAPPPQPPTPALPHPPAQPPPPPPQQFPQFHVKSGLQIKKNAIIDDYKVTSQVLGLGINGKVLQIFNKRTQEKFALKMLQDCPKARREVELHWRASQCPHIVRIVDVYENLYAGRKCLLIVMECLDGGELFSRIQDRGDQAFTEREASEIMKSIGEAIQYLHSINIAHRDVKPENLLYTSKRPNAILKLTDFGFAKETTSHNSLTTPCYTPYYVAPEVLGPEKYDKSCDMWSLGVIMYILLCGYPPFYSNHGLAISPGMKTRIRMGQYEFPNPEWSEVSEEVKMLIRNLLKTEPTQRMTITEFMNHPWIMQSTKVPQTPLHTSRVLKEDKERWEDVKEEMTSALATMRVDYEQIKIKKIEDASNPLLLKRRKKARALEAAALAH
Procedure: as §1

[4] = target: T5, ~100 representative kinases (Homo sapiens, UniProt Q9P289); experiment: DSF 100 kinase selectivity screen; conditions: protein MST4; average of three replicates;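 note: compound tested at 20 µM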
T5 construct: Recombinant protein kinase domains with a concentration of 2 μM
T5 sequence (Q9P289 whole entry, the tested form may be a part): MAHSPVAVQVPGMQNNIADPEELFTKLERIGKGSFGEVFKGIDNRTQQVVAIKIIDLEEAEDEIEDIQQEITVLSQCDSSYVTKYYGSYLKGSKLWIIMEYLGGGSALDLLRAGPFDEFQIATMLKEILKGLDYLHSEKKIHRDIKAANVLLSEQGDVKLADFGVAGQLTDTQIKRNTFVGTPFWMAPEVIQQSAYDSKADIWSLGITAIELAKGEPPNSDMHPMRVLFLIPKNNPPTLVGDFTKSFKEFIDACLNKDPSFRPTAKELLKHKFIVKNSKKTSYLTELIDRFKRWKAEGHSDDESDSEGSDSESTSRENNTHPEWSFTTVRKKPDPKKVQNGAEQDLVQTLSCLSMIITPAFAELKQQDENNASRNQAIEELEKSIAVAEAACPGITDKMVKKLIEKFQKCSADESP
Procedure: as §1

[5] = target: T6, ~100 representative kinases (Homo sapiens, UniProt P28482); experiment: DSF 100 kinase selectivity screen; conditions: protein MAPK1; average of three replicates;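 note: compound tested at 20 µM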
T6 construct: Recombinant protein kinase domains with a concentration of 2 μM
T6 sequence (P28482 whole entry, the tested form may be a part): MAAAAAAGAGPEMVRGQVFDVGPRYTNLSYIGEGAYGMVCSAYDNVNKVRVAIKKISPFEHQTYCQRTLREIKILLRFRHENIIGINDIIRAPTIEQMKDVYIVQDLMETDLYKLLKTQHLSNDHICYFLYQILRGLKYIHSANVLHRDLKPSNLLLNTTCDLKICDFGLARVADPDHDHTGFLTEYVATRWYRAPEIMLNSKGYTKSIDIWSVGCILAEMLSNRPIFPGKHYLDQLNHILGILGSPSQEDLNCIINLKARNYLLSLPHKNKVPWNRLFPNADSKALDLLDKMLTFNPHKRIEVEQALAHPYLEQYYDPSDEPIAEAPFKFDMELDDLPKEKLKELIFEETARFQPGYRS
Procedure: as §1

[6] = target: T7, ~100 representative kinases (Homo sapiens, UniProt P11362); experiment: DSF 100 kinase selectivity screen; conditions: protein FGFR1; average of three replicates;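 note: compound tested at 20 µM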
T7 construct: Recombinant protein kinase domains with a concentration of 2 μM
T7 sequence (P11362 22-822): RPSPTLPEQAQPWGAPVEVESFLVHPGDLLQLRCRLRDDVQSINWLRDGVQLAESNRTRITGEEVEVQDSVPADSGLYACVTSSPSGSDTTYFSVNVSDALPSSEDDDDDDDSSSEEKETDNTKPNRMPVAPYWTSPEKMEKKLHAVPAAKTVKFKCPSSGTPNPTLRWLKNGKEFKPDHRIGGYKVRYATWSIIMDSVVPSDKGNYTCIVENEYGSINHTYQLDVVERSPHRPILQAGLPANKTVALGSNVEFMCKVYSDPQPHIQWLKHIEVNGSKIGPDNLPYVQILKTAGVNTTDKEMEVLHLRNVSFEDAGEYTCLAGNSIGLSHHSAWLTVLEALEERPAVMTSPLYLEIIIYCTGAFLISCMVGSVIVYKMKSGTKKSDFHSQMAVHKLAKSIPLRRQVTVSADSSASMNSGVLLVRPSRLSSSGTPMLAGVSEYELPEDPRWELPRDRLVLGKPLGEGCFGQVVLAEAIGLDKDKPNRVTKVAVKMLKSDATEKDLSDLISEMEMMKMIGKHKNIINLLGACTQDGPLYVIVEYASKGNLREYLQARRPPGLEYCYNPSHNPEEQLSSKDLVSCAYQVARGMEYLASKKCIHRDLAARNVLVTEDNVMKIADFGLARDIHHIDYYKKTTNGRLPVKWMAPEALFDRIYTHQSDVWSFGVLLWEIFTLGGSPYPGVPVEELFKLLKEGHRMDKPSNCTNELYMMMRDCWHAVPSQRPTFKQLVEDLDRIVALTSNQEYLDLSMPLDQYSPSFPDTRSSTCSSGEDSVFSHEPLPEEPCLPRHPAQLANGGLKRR
Procedure: as §1

[7] = target: T8, ~100 representative kinases (Homo sapiens, UniProt Q96PY6); experiment: DSF 100 kinase selectivity screen; conditions: protein NEK1; average of three replicates
T8 construct: Recombinant protein kinase domains with a concentration of 2 μM
T8 sequence (Q96PY6 1-1258): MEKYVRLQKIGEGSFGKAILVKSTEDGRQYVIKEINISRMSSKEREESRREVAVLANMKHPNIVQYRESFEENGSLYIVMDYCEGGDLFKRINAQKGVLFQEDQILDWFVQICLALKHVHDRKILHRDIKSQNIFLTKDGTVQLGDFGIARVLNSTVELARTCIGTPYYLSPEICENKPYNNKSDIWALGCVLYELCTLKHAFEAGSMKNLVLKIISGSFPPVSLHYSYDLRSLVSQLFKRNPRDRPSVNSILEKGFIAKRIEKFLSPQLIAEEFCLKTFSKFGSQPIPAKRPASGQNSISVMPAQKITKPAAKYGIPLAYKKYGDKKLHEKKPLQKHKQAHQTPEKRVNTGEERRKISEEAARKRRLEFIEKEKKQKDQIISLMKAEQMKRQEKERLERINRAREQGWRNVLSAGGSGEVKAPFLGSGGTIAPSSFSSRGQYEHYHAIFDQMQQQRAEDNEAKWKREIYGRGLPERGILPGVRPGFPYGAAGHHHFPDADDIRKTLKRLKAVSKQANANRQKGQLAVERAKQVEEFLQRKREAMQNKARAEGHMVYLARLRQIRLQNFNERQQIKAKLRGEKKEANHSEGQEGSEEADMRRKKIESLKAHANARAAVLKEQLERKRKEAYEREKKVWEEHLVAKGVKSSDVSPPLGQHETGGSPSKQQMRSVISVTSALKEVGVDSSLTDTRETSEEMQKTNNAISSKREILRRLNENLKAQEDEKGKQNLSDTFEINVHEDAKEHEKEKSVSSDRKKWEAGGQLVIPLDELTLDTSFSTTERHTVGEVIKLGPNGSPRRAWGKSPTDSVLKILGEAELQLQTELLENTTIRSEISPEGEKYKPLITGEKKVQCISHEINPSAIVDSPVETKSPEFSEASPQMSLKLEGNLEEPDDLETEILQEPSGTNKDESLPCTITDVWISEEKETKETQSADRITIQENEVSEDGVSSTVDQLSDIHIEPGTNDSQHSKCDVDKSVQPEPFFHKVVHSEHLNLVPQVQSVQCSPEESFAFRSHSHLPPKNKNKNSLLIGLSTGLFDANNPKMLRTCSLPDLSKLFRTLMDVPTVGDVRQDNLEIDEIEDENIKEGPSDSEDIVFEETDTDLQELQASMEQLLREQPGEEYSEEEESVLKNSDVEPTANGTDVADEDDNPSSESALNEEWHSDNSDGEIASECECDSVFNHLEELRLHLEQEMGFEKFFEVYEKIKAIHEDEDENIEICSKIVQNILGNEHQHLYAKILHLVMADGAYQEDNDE
Procedure: as §1

Row | ∆Tm (K) (LRRK2^KW) | dTm [1] [K] | dTm [2] [K] | dTm [3] [K] | dTm [4] [K] | dTm [5] [K] | dTm [6] [K] | dTm [7] [K] | ∆Tm (K) (LRRK2^KW; listed as 30 (RN277)) | ∆Tm (K) (LRRK2^KW; listed as RN277) | SMILES | dTm LRRK2(KW) [K] (LRRK2^KW; screen of 31 type-II inhibitors, Table S1)
1 | 9.2 | -0.73 | 3.56 | -0.35 | 3.92 | -0.16 | 1.14 | -0.14 |  |  | O=C(Nc1cccc(-c2c[nH]c3ncnc(N4CCOCC4)c23)c1)C1(C(=O)Nc2ccc(F)cc2F)CC1 [Compound 23] | 
2 | 13.3 | 2.29 | 8.50 | -0.28 | 7.93 | 0.024 | 2.46 | -0.05 |  |  | Cc1cc(NC(=O)C2(C(=O)Nc3cccc(-c4c[nH]c5ncnc(N6CCOCC6)c45)c3)CC2)ccc1F [Compound 20] | 
3 | 18.0 | 2.11 | 2.43 | -0.40 | -1.15 | -0.85 | 1.76 | -1.20 |  |  | CC(=O)N1CCN(c2nc(Cl)nc3[nH]cc(-c4cccc(NC(=O)Nc5cc(C(C)(C)C)nn5-c5ccc(C)cc5)c4)c23)CC1 [Compound 31] | 
4 | 10.0 | 3.01 | 2.92 | 0.62 | 3.15 | 0.01 | 0.32 | -0.00237 |  |  | Cc1cc(NC(=O)C2(C(=O)Nc3ccc(F)cc3)CC2)cc(-c2c[nH]c3ncnc(N4CCOCC4)c23)c1 [Compound 6] | 
5 | 9.3 | 0.95 | 3.53 | -0.15 | 3.77 | 0.22 | 1.41 | 0.33 |  |  | O=C(Nc1ccccc1)C1(C(=O)Nc2cccc(-c3c[nH]c4ncnc(N5CCOCC5)c34)c2)CC1 [Compound 12] | 
6 | 14.0 | 4.80 | 7.42 | -0.94 | 6.31 | -0.09 | 1.26 | -0.89 |  |  | O=C(Nc1cccc(-c2c[nH]c3ncnc(N4CCOCC4)c23)c1)C1(C(=O)Nc2ccc(F)c(Br)c2)CC1 [Compound 19] | 
7 |  | 2.36 | 1.78 | -0.50 | -1.63 | -0.99 | 1.65 | -0.84 | 18.0 | 18 | Cc1ccc(-n2nc(C(C)(C)C)cc2NC(=O)Nc2cccc(-c3c[nH]c4nc(Cl)nc(N5CCOCC5)c34)c2)cc1 [Compound 30] | 
8 | 20.0 | 3.53 | 14.76 | 0.51 | 6.29 | 0.09 | 8.37 | 0.13 |  |  | CC(C)(C)c1cc(NC(=O)Nc2cccc(-c3c[nH]c4ncnc(N5CCOCC5)c34)c2)n(-c2ccc3ncccc3c2)n1 [Compound 28] | 
9 |  | 2.14 | 1.40 | -0.23 | 0.65 | 0.38 | 0.25 | 0.68 |  |  | CCNc1nc(Nc2cc(F)c(C(=O)N3CCOCC3)cc2OC)ncc1C(F)(F)F [GNE-7915] | 
10 |  | 1.25 | 4.78 | -0.40 | 5.41 | -0.20 | 1.19 | -0.21 |  |  | O=C(Nc1ccc(F)cc1)C1(C(=O)Nc2cccc(-c3c[nH]c4ncnc(N5CCOCC5)c34)c2)CC1 [Compound 2] | 
11 |  | -0.34 | -0.37 | 0.98 | -1.65 | 0.14 | 0.09 | 0.73 |  |  | COc1cc(S(C)(=O)=O)ccc1Nc1nc(N(C)C)c2c(Cl)c[nH]c2n1 [Compound 37] | 

Row | SMILES | ∆Tm (K) (LRRK2^KW) | dTm [1] [K] | dTm [2] [K] | dTm [3] [K] | dTm [4] [K] | dTm [5] [K] | dTm [6] [K] | dTm [7] [K] | ∆Tm (K) (LRRK2^KW; listed as 30 (RN277)) | ∆Tm (K) (LRRK2^KW; listed as RN277) | dTm LRRK2(KW) [K] (LRRK2^KW; screen of 31 type-II inhibitors, Table S1)
12 | Cc1ccc(C(=O)Nc2ccc(CN3CCN(C)CC3)c(C(F)(F)F)c2)cc1C#Cc1cnc2cccnn12 [Ponatinib, reference compound] | 13.0 |  | 4.72 |  |  |  | 11.47 | 0.42 |  |  | 
13 | Cn1cc(-c2c[nH]c3ncnc(N4CCOCC4)c23)cc1C#N [PFE-360] |  | 0.62 | 0.68 | 0.0427 | 1.97 | 0.55 | 0.13 | 0.39 |  |  | 
14 | COc1cc2c(Oc3ccc(NC(=O)C4(C(=O)Nc5ccc(F)cc5)CC4)cc3F)ccnc2cc1OCCCN1CCOCC1 [Foretinib, reference compound] | 12.1 ± 0.1 | 0.55 | 0.40 | 0.33 | 3.65 | 0.0844 | 5.33 | 0.60 |  |  | 11.5
15 | CN[C@@H]1C[C@H]2O[C@@](C)([C@@H]1OC)n1c3ccccc3c3c4c(c5c6ccccc6n2c5c31)C(=O)NC4 [Staurosporine] |  | 12.74 |  |  |  |  |  |  |  |  | 
16 | C[C@@H]1CN(c2cc(-c3n[nH]c4ccc(OC5(C)CC5)cc34)ncn2)C[C@H](C)O1 [MLi2] |  | 0.51 | -0.0213 | -0.23 | -0.41 | 0.49 | -0.19 | 0.27 |  |  | 
